Measured values reported in patent US4599347A, “Tetrahydro-naphth (2.3-d) imidazole derivatives” (Hoffmann-La Roche Inc., priority 1980, dated 1986).
Structures can show the parent of a compound that is named as a salt. Where two headings read alike, the source gives them in different places.

Legend:
[1] = Preliminary toxicity in the mouse; details: in vivo, po, read-out: Prel. tox mouse
Protocol: Representative compounds of formula I of the invention were tested for their gastric acid secretion-inhibiting activity, for their anti-ulcer activity, as well as for their toxicity.
In Table I, which follows, the names of the compounds tested as well as the results of the testing for their gastric secretion-inhibiting activity, for their anti-ulcer activity and for their toxicity are given.

gastric acid secretion = assay: Shay test (pylorus-ligated rats, gastric acid secretion-inhibiting activity); format: in vivo, rat; details: female rats, i.d.; for ED50: Rattus norvegicus, 4 h
Protocol: The two experimental procedures described hereinafter were used to determine the gastric acid secretion-inhibiting activity: Shay test The pylorus of female rats, which had received no food for 24 hours but which had received water ad libitum, is ligatured under slight ether narcosis in accordance with Shay et al. [Gastroenterology 5, 43 (1945)]. Immediately thereafter the substances to be tested are administered intraduodenally to the animals. Four (4) hours later the animals are killed. The volume and the acidity of their gastric juice are determined and the values obtained are compared with those of control animals which were treated similarly, but had received no test substance. The ED 50 is defined as the dosage of test substance which brings about a 50% reduction of volume or acidity of the gastric juice in the treated animals compared with the control animals.

[2] = test system: acid secretion caused by 4-methylhistamine dihydrochloride; assay: Heidenhain test (gastric pouch dogs, inhibition of 4-methylhistamine-stimulated acid secretion); format: in vivo, dog; details: 50% inhibition of acid secretion caused by 4-methylhistamine dihydrochloride infusion; for ED50: Canis lupus familiaris, po, read-out: Heidenhain test ED 50
Protocol: The two experimental procedures described hereinafter were used to determine the gastric acid secretion-inhibiting activity: Heidenhain test A part of the stomach fundus of female and male dogs is separated from the remaining stomach in the form of a pouch according to the […] technique [described by Rudick et al. in J. Surgical Research 7, 383-398 (1967)]. In the pouch there is fitted a steel cannula which is conducted externally through the abdominal wall. The secretion experiments are commenced after about 6 weeks. Before each experiment the animals receive no food for 18 hours, but receive water ad libitum. They are conscious during the experiment. A saphenous vein is cannulated for an infusion of 4-methylhistamine dihydrochloride, a selective stimulator of the histamine H2 -receptors. An appropriate infusion rate of the 4-methylhistamine dihydrochloride ([…], intravenously) is ascertained for each animal in preliminary experiments. During the entire main experiment the gastric secretion is stimulated by the infusion of 4-methylhistamine dihydrochloride, and 15 minute fractions of the gastric juice are collected continuously. As soon as volume and pH of these fractions show constant values, the test substances are administered orally. The ED 50 is defined as that dosage of test substance which brings about a 50% inhibition of the acid secretion caused by 4-methylhistamine dihydrochloride in the treated animals compared with the controls.

ulcers of the duodenum = assay: Anti-ulcer activity (ulcers of the duodenum induced by 4-methylhistamine and carbachol in guinea pigs); format: in vivo, guinea pig; details: i.g.; for ED50: Cavia porcellus, po, read-out: Anti-ulcer ED 50
Protocol: Before the beginning of the testing a group of 10 guinea pigs, body weight 280 to 320 g, of the same sex receives no food for 24 hours, but receives water ad libitum. Various doses of the test substance or of the appropriate vehicle (control) are administered intragastrically. The test is repeated on different days with other groups of guinea pigs in order to avoid the influence of daily variations.

[3] = 50% reduction of acidity of gastric juice, read-out: Shay test ED 50 Acid
[4] = 50% reduction of volume of gastric juice, read-out: Shay test ED 50 Vol

Row | SMILES | LD50 [1] [mg/kg] | ED50 (gastric acid secretion; [3]) [mg/kg] | ED50 (gastric acid secretion; [4]) [mg/kg] | ED50 [2] [mg/kg] | ED50 (ulcers of the duodenum) [mg/kg] | Shay test ED 50 Acid (gastric acid secretion; 4 hours, 50% reduction of acidity of gastric juice, dihydrochloride, 240 min) [mg/kg] | Shay test ED 50 Vol (gastric acid secretion; 4 hours, 50% reduction of volume of gastric juice, dihydrochloride, 240 min) [mg/kg] | Heidenhain test ED 50 ([2]; p.o., dihydrochloride) [mg/kg] | Anti-ulcer ED 50 (ulcers of the duodenum; dihydrochloride) [mg/kg]
1 | Cc1ccc(CSc2nc3cc4c(cc3[nH]2)CCC4)nc1.Cl.Cl [1,5,6,7-tetrahydro-2-[[(5-methyl-2-pyridyl)methyl]thio]indeno(5,6-d)imidazole dihydrochloride] | 1250 | 28 | 50 | 3.6 | 34 |  |  |  | 
2 | CC1(C)C(=O)C(C)(C)c2cc3[nH]c(SCc4ccccn4)nc3cc21 [5,7-dihydro-5,5,7,7-tetramethyl-2-[(2-pyridylmethyl)thio]indeno(5,6-d)imidazol-6(1H)-one] | 2500 | 9 | 20 | 5.5 | 32 |  |  |  | 
3 | c1ccc(CSc2nc3cc4c(cc3[nH]2)OCO4)nc1 [6-[(2-Pyridylmethyl)thio]-5H-1,3-dioxolo(4,5-f)-benzimidazole.2HCl] | 1250 | 29 | 35 | 2.6 | 17 |  |  |  | 
4 | Cc1ccc(CSc2nc3cc4c(cc3[nH]2)OCO4)nc1 [6-[[(5-Methyl-2-pyridyl)-methyl]thio]-5H--1,3-dioxolo-(4,5-f)benzimidazole dihydrochloride] |  |  |  |  |  | 65 | 75 | 2.1 | 25
5 | Cc1ccc(C[S+]([O-])c2nc3cc4c(cc3[nH]2)OCO4)nc1 (stereo not shown) [6-[[(5-methyl-2-pyridyl)methyl]sulfinyl]-5H-1,3-dioxolo(4,5-f)-benzimidazole] | 5000 | 28 | 65 | 2.3 | 14 |  |  |  | 
6 | Cc1ccc(CSc2nc3cc4c(cc3[nH]2)OCO4)nc1 [6-[[(5-methyl-2-pyridyl)methyl]thio]-5H-1,3-dioxolo(4,5-f)benzimidazole] |  | 100 | 100 | 1.8 | 18 |  |  |  | 
